Experimental data as given in patent US20240409585A1, “MACROCYCLIC IMMUNOMODULATORS” (priority 2021, published 2024).
Read-outs that look alike come from different tables or passages of the source. Bridge positions count the residues as written; N and C are the ends. Square brackets hold non-standard residues; d marks the D form. Peptide text beside a SMILES is read from it. * marks the point of attachment. ξ: configuration not given here. Phe(3-allyloxy) = C=CCOc1cccc(C[C@H](N)C(=O)O)c1; Phe(4-COOH) = N[C@@H](Cc1ccc(C(=O)O)cc1)C(=O)O; Bip = N[C@@H](Cc1ccc(-c2ccccc2)cc1)C(=O)O; Phe(3-OMe) = COc1cccc(C[C@H](N)C(=O)O)c1; Phe(3-Me) = Cc1cccc(C[C@H](N)C(=O)O)c1; Val(3-OH) = CC(C)(O)[C@H](N)C(=O)O; h4Pal = N[C@@H](CCc1ccncc1)C(=O)O; 3Pal = N[C@@H](Cc1cccnc1)C(=O)O; 4Pal = N[C@@H](Cc1ccncc1)C(=O)O; d3Pal = N[C@H](Cc1cccnc1)C(=O)O; Cha = N[C@@H](CC1CCCCC1)C(=O)O; Ile(3ξ) = CCC(C)[C@H](N)C(=O)O; Thr(3ξ) = CC(O)[C@H](N)C(=O)O; Carboxymethyl = O=C(O)C*; NMeA = CN[C@@H](C)C(=O)O; Nle = CCCC[C@H](N)C(=O)O; Orn = NCCC[C@H](N)C(=O)O; Dab = NCC[C@H](N)C(=O)O; Dap = NC[C@H](N)C(=O)O

Molecular target: T1, PE-labeled human PD-L1-Ig binding to Jurkat cell line over-expressing human PD-1 (Jurkat-PD-1) (Homo sapiens, UniProt Q15116)
T1 construct: expressed in transfected cells; host or cells: Jurkat
T1 sequence (Q15116 25-288): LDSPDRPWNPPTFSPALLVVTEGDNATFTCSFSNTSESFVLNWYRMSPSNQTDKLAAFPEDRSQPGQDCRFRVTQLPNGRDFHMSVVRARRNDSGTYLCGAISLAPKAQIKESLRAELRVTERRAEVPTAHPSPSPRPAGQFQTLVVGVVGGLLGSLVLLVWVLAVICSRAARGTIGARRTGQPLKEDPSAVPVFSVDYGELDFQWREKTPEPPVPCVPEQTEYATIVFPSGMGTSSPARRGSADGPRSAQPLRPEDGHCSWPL
Assay: Jurkat-PD-1 Cell Binding High-Content Screening Assay (CBA): Method 1
Conditions: Jurkat-hPD-1 cells, PE-labeled PD-L1-Ig 20 nM final

[1] = read-out: Jurkat HPDL1 PD1 IC50 (uM) (Method 1)

SMILES | IC50 [1] | IC50 (Jurkat HPDL1 PD1 IC50 (uM) (Method 1))
CCCC[C@@H]1NC(=O)[C@H](CC(N)=O)NC(=O)[C@@H](C)NC(=O)[C@H](C)N(C)C(=O)[C@H](C(C)C)NC(=O)[C@H](Cc2ccc(-c3ccccc3)cc2)NC(=O)[C@H](CC(C)C)NC(=O)[C@H](Cc2c[nH]c3ccccc23)NC(=O)[C@H](CC(=O)O)NC(=O)[C@H](Cc2ccc(O)cc2)NC(=O)[C@H](Cc2ccccc2)NC(=O)CSC[C@@H](C(=O)N[C@@H](C)C(N)=O)NC(=O)[C@H]([C@@H](C)O)NC(=O)[C@H](CCCNC(=N)N)NC1=O [Compound 1816] ({CH2CO}-FYDWL[Bip]V[NMeA][dA]N[Nle]RTCA-NH2; thioether N-14) | 0.32 µM | –
COc1cccc(C[C@@H]2NC(=O)[C@H](Cc3cccnc3)NC(=O)CSC[C@@H](C(=O)NCC(N)=O)NC(=O)[C@H](CO)NC(=O)[C@H](C(C)C)NC(=O)[C@H](CC(C)C)NC(=O)[C@H](CC(N)=O)NC(=O)[C@@H](CC(C)C)NC(=O)[C@H](C)N(C)C(=O)[C@H](C(C)C)NC(=O)[C@H](Cc3ccc(-c4ccccc4)cc3)NC(=O)[C@H](CC(C)C)NC(=O)[C@H](Cc3c[nH]c4ccccc34)NC(=O)[C@H](CC(=O)O)NC2=O)c1 [Compound 1524] ({CH2CO}-[3Pal][Phe(3-OMe)]DWL[Bip]V[NMeA][dL]NLVSCG-NH2; thioether N-14) | 0.01 µM | –
CC(C)C[C@@H]1NC(=O)[C@H](CCN)NC(=O)[C@@H](CC(C)C)NC(=O)[C@H](C)N(C)C(=O)[C@H](C(C)C)NC(=O)[C@H](Cc2ccc(-c3ccccc3)cc2)NC(=O)[C@H](C(C)C)NC(=O)[C@H](Cc2c[nH]c3ccccc23)NC(=O)[C@H](CC(=O)O)NC(=O)[C@H](Cc2ccc(O)cc2)NC(=O)[C@H](CCC(N)=O)NC(=O)CSC[C@@H](C(=O)N[C@@H](C)C(N)=O)NC(=O)[C@H]([C@@H](C)O)NC(=O)[C@H](C(C)C)NC1=O [Compound 1359] ({CH2CO}-QYDWV[Bip]V[NMeA][dL][Dab]LVTCA-NH2; thioether N-14) | 0.05 µM | –
CC(C)C[C@@H]1NC(=O)[C@H](CCN)NC(=O)[C@@H](CC(C)C)NC(=O)[C@H](C)N(C)C(=O)[C@H](CCCNC(=N)N)NC(=O)[C@H](Cc2ccc(-c3ccccc3)cc2)NC(=O)[C@H](C(C)C)NC(=O)[C@H](Cc2c[nH]c3ccccc23)NC(=O)[C@H](CC(=O)O)NC(=O)[C@H](CCc2ccncc2)NC(=O)[C@H](CC(N)=O)NC(=O)CSC[C@@H](C(=O)N[C@@H](C)C(N)=O)NC(=O)[C@H]([C@@H](C)O)NC(=O)[C@H](C(C)C)NC1=O [Compound 1352] ({CH2CO}-N[h4Pal]DWV[Bip]R[NMeA][dL][Dab]LVTCA-NH2; thioether N-14) | 0.01 µM | –
CC(C)C[C@@H]1NC(=O)[C@H](CCCNC(=N)N)NC(=O)[C@@H](CC(C)C)NC(=O)[C@H](C)N(C)C(=O)[C@H](CCCNC(=N)N)NC(=O)[C@H](Cc2ccc(-c3ccccc3)cc2)NC(=O)[C@H](C(C)C)NC(=O)[C@H](Cc2c[nH]c3ccccc23)NC(=O)[C@H](CC(=O)O)NC(=O)[C@H](Cc2ccc(O)cc2)NC(=O)[C@H](Cc2cnc[nH]2)NC(=O)CSC[C@@H](C(=O)N[C@@H](C)C(N)=O)NC(=O)[C@H]([C@@H](C)O)NC(=O)[C@H](C(C)C)NC1=O [Compound 1047] ({CH2CO}-HYDWV[Bip]R[NMeA][dL]RLVTCA-NH2; thioether N-14) | 0.07 µM | –
CC(C)C[C@@H]1NC(=O)[C@H](CCCN)NC(=O)[C@@H](CC(C)C)NC(=O)[C@H](C)N(C)C(=O)[C@H](CCCN)NC(=O)[C@H](Cc2ccc(-c3ccccc3)cc2)NC(=O)[C@H](C(C)C)NC(=O)[C@H](Cc2c[nH]c3ccccc23)NC(=O)[C@H](CC(=O)O)NC(=O)[C@H](Cc2ccc(O)cc2)NC(=O)[C@H](CC(N)=O)NC(=O)CSC[C@@H](C(=O)N[C@@H](C)C(N)=O)NC(=O)[C@H](CO)NC(=O)[C@H](C(C)C)NC1=O [Compound 1251] ({CH2CO}-NYDWV[Bip][Orn][NMeA][dL][Orn]LVSCA-NH2; thioether N-14) | 0.04 µM | –
CCC(C)[C@@H]1NC(=O)[C@H](Cc2ccc(-c3ccccc3)cc2)NC(=O)[C@H](C(C)C)NC(=O)[C@H](Cc2cccc(C)c2)NC(=O)[C@H](CC(=O)O)NC(=O)[C@H](Cc2ccc(C(=O)O)cc2)NC(=O)[C@H](Cc2ccncc2)NC(=O)CSC[C@@H](C(N)=O)NC(=O)[C@H](CCCN)NC(=O)[C@H](C(C)C)NC(=O)[C@H](CC(C)C)NC(=O)[C@H](CCN)NC(=O)[C@@H](CC(C)C)NC(=O)[C@H](C)N(C)C1=O (stereo partly drawn) [Compound 1900] ({CH2CO}-[4Pal][Phe(4-COOH)]D[Phe(3-Me)]V[Bip][Ile(3ξ)][NMeA][dL][Dab]LV[Orn]C-NH2; thioether N-14) | 0.05 µM | –
C=CCOc1cccc(C[C@@H]2NC(=O)[C@H](Cc3ccccc3)NC(=O)CSC[C@@H](C(=O)N[C@@H](C)C(N)=O)NC(=O)[C@H](CO)NC(=O)[C@H](C(C)C)NC(=O)[C@H](CC(C)C)NC(=O)[C@H](CC(N)=O)NC(=O)[C@@H](C)NC(=O)[C@H](C)N(C)C(=O)[C@H](C(C)C)NC(=O)[C@H](Cc3ccc(-c4ccccc4)cc3)NC(=O)[C@H](CC(C)C)NC(=O)[C@H](Cc3c[nH]c4ccccc34)NC(=O)[C@H](CC(=O)O)NC2=O)c1 [Compound 1772] ({CH2CO}-F[Phe(3-allyloxy)]DWL[Bip]V[NMeA][dA]NLVSCA-NH2; thioether N-14) | 0.04 µM | –
CC(C)C[C@@H]1NC(=O)[C@H](CCCNC(=N)N)NC(=O)[C@@H](Cc2cccnc2)NC(=O)[C@H](C)N(C)C(=O)[C@H](CCCNC(=N)N)NC(=O)[C@H](Cc2ccc(-c3ccccc3)cc2)NC(=O)[C@H](C(C)C)NC(=O)[C@H](Cc2c[nH]c3ccccc23)NC(=O)[C@H](CC(=O)O)NC(=O)[C@H](Cc2ccc(O)cc2)NC(=O)[C@H](Cc2ccccc2)NC(=O)CSC[C@@H](C(=O)N[C@@H](C)C(N)=O)NC(=O)[C@H]([C@@H](C)O)NC(=O)[C@H](C(C)C)NC1=O [Compound 1104] ({CH2CO}-FYDWV[Bip]R[NMeA][d3Pal]RLVTCA-NH2; thioether N-14) | 0.13 µM | –
CC(C)C[C@@H]1NC(=O)[C@H](CCN)NC(=O)[C@@H](CC(C)C)NC(=O)[C@H](C)N(C)C(=O)[C@H](C(C)C)NC(=O)[C@H](Cc2ccc(-c3ccccc3)cc2)NC(=O)[C@H](C(C)C)NC(=O)[C@H](Cc2c[nH]c3ccccc23)NC(=O)[C@H](CC(=O)O)NC(=O)[C@H](Cc2ccncc2)NC(=O)[C@H](CN)NC(=O)CSC[C@@H](C(=O)N[C@@H](C)C(N)=O)NC(=O)[C@H]([C@@H](C)O)NC(=O)[C@H](C(C)C)NC1=O [Compound 1542] ({CH2CO}-[Dap][4Pal]DWV[Bip]V[NMeA][dL][Dab]LVTCA-NH2; thioether N-14) | – | 0.04 µM

More lines, main results first:

IC50 [1] | SMILES | IC50 (Jurkat HPDL1 PD1 IC50 (uM) (Method 1))
0.09 µM | Cc1cccc(C[C@@H]2NC(=O)[C@H](CC(=O)O)NC(=O)[C@H](Cc3ccc(OCC(=O)O)cc3)NC(=O)[C@H]([C@@H](C)O)NC(=O)CSC[C@@H](C(N)=O)NC(=O)[C@H]([C@@H](C)O)NC(=O)[C@H](C(C)C)NC(=O)[C@H](CC3CCCCC3)NC(=O)[C@H](CCN)NC(=O)[C@@H](CC(C)C)NC(=O)[C@H](C)N(C)C(=O)[C@H](Cc3ccc(OCC(=O)O)cc3)NC(=O)[C@H](Cc3ccc(-c4ccccc4)cc3)NC(=O)[C@H](Cc3ccc(OCC(=O)O)cc3)NC2=O)c1 [Compound 1672] ({CH2CO}-TY(Carboxymethyl)D[Phe(3-Me)]Y(Carboxymethyl)[Bip]Y(Carboxymethyl)[NMeA][dL][Dab][Cha]VTC-NH2; thioether N-14) | –
0.04 µM | CC(C)C[C@H]1NC(=O)[C@H](C)N(C)C(=O)[C@H](CCC(=O)O)NC(=O)[C@H](Cc2ccc(-c3ccccc3)cc2)NC(=O)[C@H](C(C)C)NC(=O)[C@H](Cc2c[nH]c3ccccc23)NC(=O)[C@H](CC(=O)O)NC(=O)[C@H](Cc2ccc(O)cc2)NC(=O)[C@H](C(C)O)NC(=O)CSC[C@@H](C(=O)NCC(N)=O)NC(=O)[C@H](C(C)O)NC(=O)[C@H](C(C)C)NC(=O)[C@H](CC2CCCCC2)NC(=O)[C@H](CCN)NC1=O (stereo partly drawn) [Compound 2095] ({CH2CO}-[Thr(3ξ)]YDWV[Bip]E[NMeA][dL][Dab][Cha]V[Thr(3ξ)]CG-NH2; thioether N-14) | –
0.01 µM | CC[C@H](C)[C@@H]1NC(=O)[C@H](Cc2ccc(-c3ccccc3)cc2)NC(=O)[C@H](C(C)C)NC(=O)[C@H](Cc2cccc(C)c2)NC(=O)[C@H](CC(=O)O)NC(=O)[C@H](Cc2ccc(O)cc2)NC(=O)[C@H](CC(N)=O)NC(=O)CSC[C@@H](C(=O)N[C@H](C)C(N)=O)NC(=O)[C@H]([C@@H](C)O)NC(=O)[C@H](C(C)(C)O)NC(=O)[C@H](CC2CCCCC2)NC(=O)[C@H](CCN)NC(=O)[C@@H](CC(C)C)NC(=O)[C@H](C)N(C)C1=O [Compound 1690] ({CH2CO}-NYD[Phe(3-Me)]V[Bip]I[NMeA][dL][Dab][Cha][Val(3-OH)]TC[dA]-NH2; thioether N-14) | –
0.16 µM | CC(=O)NCCCC[C@@H]1NC(=O)[C@H](Cc2ccc(-c3ccccc3)cc2)NC(=O)[C@H](Cc2ccc(O)cc2)NC(=O)[C@H](Cc2c[nH]c3ccccc23)NC(=O)[C@H](CC(=O)O)NC(=O)[C@H](Cc2ccc(OCC(=O)O)cc2)NC(=O)[C@H](C(C)O)NC(=O)CSC[C@@H](C(N)=O)NC(=O)[C@H](C(C)O)NC(=O)[C@H](C(C)C)NC(=O)[C@H](CC2CCCCC2)NC(=O)[C@H](CCN)NC(=O)[C@@H](CC(C)C)NC(=O)[C@H](C)N(C)C1=O (stereo partly drawn) [Compound 2254] ({CH2CO}-[Thr(3ξ)]Y(Carboxymethyl)DWY[Bip]K(Ac)[NMeA][dL][Dab][Cha]V[Thr(3ξ)]C-NH2; thioether N-14) | –
0.08 µM | CC[C@H](C)[C@@H]1NC(=O)[C@H](Cc2ccc(-c3ccccc3)cc2)NC(=O)[C@H](C(C)(C)O)NC(=O)[C@H](Cc2cccc(C)c2)NC(=O)[C@H](CC(=O)O)NC(=O)[C@H](Cc2ccc(O)cc2)NC(=O)[C@H](CC(N)=O)NC(=O)CSC[C@@H](C(=O)N[C@H](C)C(N)=O)NC(=O)[C@H]([C@@H](C)O)NC(=O)[C@H](C(C)C)NC(=O)[C@H](CC2CCCCC2)NC(=O)[C@H](CCN)NC(=O)[C@@H](CC(C)C)NC(=O)[C@H](C)N(C)C1=O [Compound 1692] ({CH2CO}-NYD[Phe(3-Me)][Val(3-OH)][Bip]I[NMeA][dL][Dab][Cha]VTC[dA]-NH2; thioether N-14) | –
